According to patent US6797699B1, “Neuroprotective agents” (University of Southampton, priority 1997, dated 2004):
Marks after values point to notes of the source that are not given here.

Test system: CA1 pyramidal cell layer of organotypic hippocampal slice cultures
Test: Hypoxic neuronal damage in organotypic hippocampal slice cultures (propidium iodide fluorescence)
Assay type: cell-based, Wistar rat
Conditions: for neuroprotective effect (in words): 300 μM added 30 minutes prior to hypoxia, during hypoxia and the 24 hour recovery period
Protocol: Hypoxic neuronal damage was studied using organotypic hippocampal slice cultures [Pringle A. K. et al. (1996 Stroke 27 2124-2130)].
Cultures were prepared according to the method of Stoppini et al (1991 J. Neurosci. Meth. 37 173-182) from 8-10 day old Wistar rat pups (Bioresources Unit, University of Southampton). Cultures were maintained in vitro for 14 days (37° C., 5% CO2) during which the medium (50% minimum essential medium (MEM), 25% Hank's balanced salt solution (HBSS), 25% heat-inactivated horse serum, supplemented with 1 mM glutamine, 5 mg/ml glucose and 1.5% fungizone) was changed every 3 days. Hypoxia was induced by replacing culture medium with serum-free (SF) medium (75% MEM, 25% HBSS, 1 mM glutamine, 5 mg/ml glucose, 1.5% fungizone) saturated with 95% N2/5% CO2 (and thus oxygen-free), and placing cultures in an air-tight chamber in which the atmosphere was also saturated with N2/CO2. After 180 minutes hypoxia, cultures were replated in normoxic SF medium and replaced in the incubator for 24 hours. Compounds were added to cultures either pre-, during and post-hypoxia (herein abbreviated to “pdp”) or just in the post-hypoxic recovery period (“post”) [Johnson, T. D. (1996 Trends Pharmacol. Sci. 22-27)]. Cell damage was evaluated using the fluorescent exclusion dye propidium iodide (PI, 5 μg/ml) which is normally excluded from healthy cells, but enters cells with damaged plasma membranes and becomes highly fluorescent when bound to DNA. Neuronal cell damage was quantified using the “NIH Image 1.55” software (written by Wayne Rasband at the U.S. National Institutes for Health and available from the internet by anonymous ftp from zippy.nimh.nih.gov). Briefly, the area of the CA1, CA3 and dentate gyrus (DG) cell layers was measured from a transmission image. 24 hours after the commencement of hypoxia, a fluorescence image was captured using a standard Leica inverted fluorescence microscope fitted with a rhodamine filter set. The area of PI fluorescence above background in the neuronal cell layers was determined using the density slice function of Image. Cellular damage is expressed as the percentage area of the cell body layers in which PI fluorescence was detectable. After imaging, cultures were fixed overnight in 4% paraformaldehyde and stained with thionin.
Data are expressed as the mean±sem. Data from the non-drug groups was pooled before analysis. Statistical significance was determined using one-way analysis of variance (ANOVA) followed by post-hoc non-paired Student's t-tests. As only cells within the CA1 region were susceptible to hypoxia-induced damage, all of the pharmacological data was calculated for this region alone.
Table 1 represents the quantification of the percentage area of the CA1 pyramidal cell layer in which PI fluorescence was detectable 24 hours after 3 hours of hypoxia (% Damage CA1). Data from all of the cultures exposed to hypoxia alone were pooled (control hypoxia). The percentage neuroprotection was calculated as the (((% damage control hypoxia-% damage drug treated)/% damage control hypoxia) 100). Data are expressed as the mean±sem, n=number of cultures, *p<0.05, **<0.01, ***p<0.001 vs hypoxia control.

For `N=C(N)NCCCC(N)C(=O)NCCCNCCCCN` [Compound A, N′-L-Arginylspermidine], the “neuroprotective effect (in words)” value was “complete protection”, the “neuroprotective effect (in words)” value (listed as L-ArgSp) was “completely neuroprotective” and the “neuroprotective effect / reduction of PI fluorescence in CA1 (in words)” value (300 μM added post-hypoxia) was “significant protective effect”. The “neuroprotective effect / reduction of PI fluorescence in CA1 (in words)” value (300 μM added post-hypoxia, listed as L-ArgSp) was “significant neuroprotective effect”, the “concentration dependence of the neuroprotective effect” value (0.3-300 μM added immediately post-hypoxia) was “concentration dependent” and the EC50 (Rattus norvegicus, added immediately post-hypoxia, 0.3-300 μM, read-out: EC50 of the neuroprotective effect) was 3 to 30 µM. The “% Damage CA1” value (Table 1, 300 μM added post-hypoxia, 3 h hypoxia, PI at 24 h, control hypoxia 35.6 ± 1.43, mean±sem) was 9.9 ± 3.5*** %, the “% Protection” value (Table 1, 300 μM added post-hypoxia, vs control hypoxia) was > 70% and the “% Protection” value (Table 1, 300 μM added post-hypoxia, vs control hypoxia, listed as L-ArgSp) was 72.2%. For the same compound, the “% Damage CA1” value (Table 1, 300 μM added pre-, during and post-hypoxia (pre), 3 h hypoxia, PI at 24 h, control hypoxia 35.6 ± 1.43, mean±sem, listed as L-ArgSp) was 0.2±0.02%, the “% Protection” value (Table 1, 300 μM added pre-, during and post-hypoxia (pre), vs control hypoxia) was 99.4% and the “% Protection” value (Table 3, 0.3 μM pdp, fresh batch) was 15.5%. The “% Damage CA1” value (Table 3, 0.3 μM pdp, fresh batch, control hypoxia 23.9 ± 2.7) was 20.2 ± 8.4%, the “% Protection” value (Table 3, 1 μM pdp, fresh batch) was 15.9% and the “% Damage CA1” value (Table 3, 1 μM pdp, fresh batch, control hypoxia 23.9 ± 2.7) was 20.1 ± 8.2%. For the same compound, the “% Protection” value (Table 3, 3 μM pdp, fresh batch) was 72.8%, the “% Damage CA1” value (Table 3, 3 μM pdp, fresh batch, control hypoxia 23.9 ± 2.7) was 6.5 ± 3.0** % and the “% Protection” value (Table 3, 10 μM pdp, fresh batch) was 63.2%. For the same compound, the “% Damage CA1” value (Table 3, 10 μM pdp, fresh batch, control hypoxia 23.9 ± 2.7) was 8.8 ± 3.9* %, the “% Protection” value (Table 3, 30 μM pdp, fresh batch) was 65.9% and the “% Damage CA1” value (Table 3, 30 μM pdp, fresh batch, control hypoxia 23.9 ± 2.7) was 7.3 ± 4.2* %. The “% Protection” value (Table 3, 300 μM pdp, fresh batch) was 66.5%, the “% Damage CA1” value (Table 3, 300 μM pdp, fresh batch, control hypoxia 23.9 ± 2.7) was 8.0 ± 3.0** % and the “% Protection” value (Table 7, 300 μM post) was 56.3%. The “% Damage CA1” value (Table 7, 300 μM post, hypoxia control 27.7 ± 3.1) was 12.1 ± 3.5** %.
